From patent US5132401A (George Washington University, Office of Sponsored Research, priority 1989, dated 1992) come the findings set out here.

For this assay, the system named is anterior pituitary cells. Kind of assay: PRL assay: in vitro prolactin release from normal anterior pituitary cells, RIA. The format is cell-based, Sprague-Dawley rats. The following applies: maximum stimulatory concentration of TRH (100 nM); FIG. 12. The protocol: Inhibitory neurohormones and drugs were added during the final 20 minutes of the second rinse. […] After incubations, the medium is quickly removed and saved for radioimmunoassay (RIA).
PRL and GH were determined by standard RIA techniques (media diluted 1:30, 25-70 μl samples) using materials and protocols supplied by the NIDDK Rat Pituitary Hormone Distribution Program. Inter- and intra-assay variations for PRL and GH were less than 8% to 10%, respectively. All samples were assayed in duplicate, with results expressed in terms of NIDDK standards (rat PRL RP-2 and rat GH RP-1).

Turning to `NC(=O)[C@@H]1CCCN1C(=O)[C@H](Cc1cnc[nH]1)NC(=O)[C@@H]1CCC(=O)N1` [TRH, thyrotropin releasing hormone], the “increase in PRL release compared to the control value” is 480%.
